“And” between values parts separate entries of the source, which are not always exact repeats. Identical values can stand only once. Inconclusive results and toxic doses are left out. Rule for the calls: active = survival T/C of 150% or more; inactive = T/C below 125% in these data.
Tested on: P388 leukemia ip, CD2F1 mice, survival T/C
Assay: NCI In Vivo Anticancer Drug Screen. Data for tumor model P388 Leukemia (intraperitoneal) in CD2F1 (CDF1) mice
Details: endpoint: median survival time, higher = longer survival
Outline: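 Mice carrying the transplanted tumor received test compound or vehicle. Survival was recorded in each group, and the value is the treated-group measurement divided by that of the vehicle-treated control group.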

[1] = dose: 50.0 mg/kg/injection, schedule: Q01DX005 (ip), vehicle: saline with Tween-80
[2] = dose: 100.0 mg/kg/injection, schedule: Q01DX005 (ip), vehicle: saline with Tween-80
[3] = dose: 60.0 mg/kg/injection, schedule: Q01DX005 (ip), vehicle: Klucel (hydroxypropylcellulose) (HPC)
[4] = dose: 120.0 mg/kg/injection, schedule: Q01DX005 (ip), vehicle: Klucel (hydroxypropylcellulose) (HPC)
[5] = dose: 240.0 mg/kg/injection, schedule: Q01DX005 (ip), vehicle: Klucel (hydroxypropylcellulose) (HPC)
[6] = dose: 50.0 mg/kg/injection, schedule: Q01DX001 (ip), vehicle: saline with Tween-80
[7] = dose: 100.0 mg/kg/injection, schedule: Q01DX001 (ip), vehicle: saline with Tween-80
[8] = dose: 200.0 mg/kg/injection, schedule: Q01DX001 (ip), vehicle: saline with Tween-80
[9] = dose: 200.0 mg/kg/injection, schedule: Q01DX005 (ip), vehicle: saline with Tween-80
[10] = dose: 50.0 mg/kg/injection, schedule: Q01DX005 (ip), vehicle: Klucel (hydroxypropylcellulose) (HPC)
[11] = dose: 100.0 mg/kg/injection, schedule: Q01DX005 (ip), vehicle: Klucel (hydroxypropylcellulose) (HPC)
[12] = dose: 50.0 mg/kg/injection, schedule: Q01DX009 (ip), vehicle: saline with Tween-80
[13] = dose: 100.0 mg/kg/injection, schedule: Q01DX009 (ip), vehicle: saline with Tween-80
[14] = dose: 100.0 mg/kg/injection, schedule: Q04DX003 (ip), vehicle: saline sonified
[15] = dose: 200.0 mg/kg/injection, schedule: Q01DX009 (ip), vehicle: saline with Tween-80

Measured: T/C

CC1(C)C(=O)N(Cl)C(=O)N1Cl
inactive: dose: 6.25 mg/kg/injection, schedule: Q01DX005 (ip), vehicle: Klucel (hydroxypropylcellulose) (HPC) 100 % of control and 95 % of control | dose: 6.25 mg/kg/injection, schedule: Q01DX005 (ip), vehicle: saline with Tween-80 92 % of control | dose: 12.5 mg/kg/injection, schedule: Q01DX005 (ip), vehicle: Klucel (hydroxypropylcellulose) (HPC) 102 % of control and 101 % of control | dose: 12.5 mg/kg/injection, schedule: Q01DX005 (ip), vehicle: saline with Tween-80 87 % of control | dose: 16.5 mg/kg/injection, schedule: Q01DX009 (ip), vehicle: saline with Tween-80 104 % of control | dose: 25.0 mg/kg/injection, schedule: Q01DX005 (ip), vehicle: Klucel (hydroxypropylcellulose) (HPC) 106 % of control | dose: 25.0 mg/kg/injection, schedule: Q01DX005 (ip), vehicle: saline with Tween-80 97 % of control

CCN(CC)CCOC(=O)c1ccc(N)c2ccccc12
inactive: [1] 103 % of control | [2] 100 % of control

O=C(N/C(=C\c1ccccc1)C(=O)N1CCN(Cc2ccccc2)CC1)c1ccccc1
inactive: [1] 89 % of control | [2] 88 % of control

Cc1cc(C)nc(NS(=O)(=O)c2ccc(Nc3c4ccccc4nc4ncccc34)cc2)n1
inactive: dose: 60.0 mg/kg/injection, schedule: Q01DX005 (ip), vehicle: saline with Tween-80 97 % of control | dose: 120.0 mg/kg/injection, schedule: Q01DX005 (ip), vehicle: saline with Tween-80 90 % of control | dose: 240.0 mg/kg/injection, schedule: Q01DX005 (ip), vehicle: saline with Tween-80 90 % of control

CCc1c(C)[nH]n(C(N)=NCCSCc2nc[nH]c2C)c1=O
inactive: [3] 108 % of control | [4] 100 % of control | [5] 91 % of control

CCCCCCCCOC(=O)COc1ccc(Cl)cc1Cl
inactive: dose: 50.0 mg/kg/injection, schedule: Q01DX001 (ip), vehicle: Klucel (hydroxypropylcellulose) (HPC) 113 % of control | [6] 98 % of control | dose: 100.0 mg/kg/injection, schedule: Q01DX001 (ip), vehicle: Klucel (hydroxypropylcellulose) (HPC) 109 % of control | [7] 100 % of control | dose: 200.0 mg/kg/injection, schedule: Q01DX001 (ip), vehicle: Klucel (hydroxypropylcellulose) (HPC) 122 % of control | [8] 105 % of control

ClSC(c1ccccc1)(c1ccccc1)c1ccccc1
inactive: [1] 103 % of control | [2] 118 % of control | [9] 94 % of control

CCCNC(=NC)c1ccc(NC(=O)c2ccc(C(=O)Nc3ccc(C(=NC)NCCC)cc3)cc2)cc1
inactive: dose: 5.2 mg/kg/injection, schedule: Q01DX010 (ip), vehicle: saline 109 % of control | dose: 18.0 mg/kg/injection, schedule: Q01DX010 (ip), vehicle: saline 118 % of control

NC(=O)NC1CC1c1ccc(Cl)c(Cl)c1 (centres undefined)
inactive: [10] 103 % of control | [11] 99 % of control | dose: 200.0 mg/kg/injection, schedule: Q01DX005 (ip), vehicle: Klucel (hydroxypropylcellulose) (HPC) 114 % of control

COc1ccc(C2c3cc4c(cc3OC(C)(OC)C2C)OCO4)c(OC)c1OC (centres undefined)
inactive: [7] 94 % of control | [8] 94 % of control

COC(=O)C1=C(O)C(C(=O)OC)=C2C1=C(C(=O)OC)C(=O)C2C(=O)OC (centres undefined)
inactive: dose: 50.0 mg/kg/injection, schedule: Q01DX005 (ip), vehicle: water 97 % of control | dose: 100.0 mg/kg/injection, schedule: Q01DX005 (ip), vehicle: water 98 % of control | dose: 200.0 mg/kg/injection, schedule: Q01DX005 (ip), vehicle: water 95 % of control

CC(=O)OCC1=C(COC(C)=O)C(=O)c2cc3ccccc3cc2C1=O
inactive: dose: 25.0 mg/kg/injection, schedule: Q01DX001 (ip), vehicle: saline with Tween-80 92 % of control | [6] 92 % of control | [7] 94 % of control | [8] 101 % of control

O=N[O-].O=N[O-].[NH-]CC[NH-].[Pt+2]
inactive: dose: 25.0 mg/kg/injection, schedule: Q01DX009 (ip), vehicle: saline with Tween-80 95 % of control | [12] 100 % of control | [13] 95 % of control

CCC(CC)N(C)C(C)(C)CO
inactive: dose: 50.0 mg/kg/injection, schedule: Q04DX003 (ip), vehicle: saline sonified 96 % of control | [14] 100 % of control

C[n+]1c(-c2cccc3ccccc23)c2cc(N)ccc2c2ccccc21
inactive: dose: 0.78 mg/kg/injection, schedule: Q01DX009 (ip), vehicle: water 110 % of control | dose: 1.56 mg/kg/injection, schedule: Q01DX009 (ip), vehicle: saline 103 % of control and 113 % of control | dose: 1.56 mg/kg/injection, schedule: Q01DX009 (ip), vehicle: water 119 % of control | dose: 3.12 mg/kg/injection, schedule: Q01DX009 (ip), vehicle: saline 105 % of control | dose: 6.25 mg/kg/injection, schedule: Q01DX009 (ip), vehicle: saline 112 % of control and 122 % of control | dose: 12.0 mg/kg/injection, schedule: Q01DX009 (ip), vehicle: water 110 % of control | dose: 12.5 mg/kg/injection, schedule: Q01DX009 (ip), vehicle: saline 117 % of control and 121 % of control

O=C1C(c2ccccc2)SC(=S)N1c1ccccc1 (centres undefined)
inactive: dose: 50.0 mg/kg/injection, schedule: Q01DX009 (ip), vehicle: saline 105 % of control | dose: 100.0 mg/kg/injection, schedule: Q01DX009 (ip), vehicle: saline 92 % of control | dose: 200.0 mg/kg/injection, schedule: Q01DX009 (ip), vehicle: saline 89 % of control

CCCCCN1C(=O)C2C3CCC(O3)C2C1=O (centres undefined)
inactive: [10] 109 % of control | [11] 109 % of control

O=S(=O)(c1ccc(Cl)cc1)N(CCCCCN(S(=O)(=O)c1ccc(Cl)cc1)S(=O)(=O)c1ccc(Cl)cc1)S(=O)(=O)c1ccc(Cl)cc1
inactive: dose: 30.0 mg/kg/injection, schedule: Q01DX005 (ip), vehicle: Klucel (hydroxypropylcellulose) (HPC) 94 % of control | [3] 105 % of control | [4] 96 % of control | [5] 93 % of control

CC(C)(C)c1cc(C(C)(C)c2ccccc2)cc(Cc2cc(C(C)(C)c3ccccc3)cc(C(C)(C)C)c2O)c1O
inactive: [12] 92 % of control | [13] 94 % of control | [15] 93 % of control | dose: 400.0 mg/kg/injection, schedule: Q01DX009 (ip), vehicle: saline with Tween-80 89 % of control

CC1CCC(c2ccoc2)N2C1CCC(C)(Sc1ccccc1)C2O (centres undefined)
inactive: dose: 5.5 mg/kg/injection, schedule: Q01DX004 (ip), vehicle: DMSO 95 % of control | dose: 11.0 mg/kg/injection, schedule: Q01DX004 (ip), vehicle: DMSO 115 % of control | dose: 22.0 mg/kg/injection, schedule: Q01DX004 (ip), vehicle: DMSO 113 % of control | dose: 25.0 mg/kg/injection, schedule: Q01DX001 (ip), vehicle: other 103 % of control | dose: 44.0 mg/kg/injection, schedule: Q01DX004 (ip), vehicle: DMSO 105 % of control | dose: 50.0 mg/kg/injection, schedule: Q01DX001 (ip), vehicle: other 98 % of control | dose: 100.0 mg/kg/injection, schedule: Q01DX001 (ip), vehicle: other 98 % of control

C=CC(/C=C\c1ccc(OC2OC(CO)C(O)C(O)C2O)cc1)c1ccc(OC2OC(CO)C(O)C(O)C2O)cc1 (centres undefined)
inactive: dose: 60.0 mg/kg/injection, schedule: Q01DX005 (ip), vehicle: saline 97 % of control | dose: 120.0 mg/kg/injection, schedule: Q01DX005 (ip), vehicle: saline 103 % of control | dose: 240.0 mg/kg/injection, schedule: Q01DX005 (ip), vehicle: saline 92 % of control

COc1ccccc1NC(CCN1CCCCC1)=NC(C)(C)C
inactive: [12] 111 % of control | [13] 106 % of control | [15] 104 % of control

CCCCN(CCCC)C(=N)c1c(OC)cccc1OC
inactive: dose: 0.78 mg/kg/injection, schedule: Q01DX005 (ip), vehicle: saline 104 % of control | dose: 1.56 mg/kg/injection, schedule: Q01DX005 (ip), vehicle: saline 99 % of control | dose: 3.12 mg/kg/injection, schedule: Q01DX005 (ip), vehicle: saline 96 % of control

C/C(=N\Nc1cc(C)c2cccc(C)c2n1)c1ccccn1
inactive: [1] 105 % of control | [2] 91 % of control | [9] 91 % of control

O=C([O-])CN(CCN(CC(=O)[O-])CC(=O)O)CC(=O)O.[Fe+5].[Na+]
inactive: [12] 91 % of control | [13] 91 % of control | [14] 86 % of control | [15] 91 % of control | dose: 200.0 mg/kg/injection, schedule: Q04DX003 (ip), vehicle: saline sonified 90 % of control
